# Experimental data as given in US10434075B2, “FKBP52 specific androgen receptor inhibitor, MJC13, for use in treating breast cancer” (THE BOARD OF REGENTS OF THE UNIVERSITY OF TEXAS SYSTEM, priority 2016, dated 2019).
# “Also recorded” adds a separate entry of the source.
# Columns and labels:
# [1] = test system: human prostate cancer cell lines; conditions: variety of human prostate cancer cell lines; cited from earlier work
# [2] = test system: prostate cancer xenograft; conditions: prostate cancer xenograft model, preclinical studies; cited from earlier work
# [3] = test system: MCF-7 breast cancer cells; test: E2-induced proliferation in MCF-7 breast cancer cells; type: cell-based; conditions: FIG. 1
# AR [4] = conditions: binding AR BF3 surface; FKBP52-receptor complex prevented from dissociating; cited from earlier work
# [5] = test system: tamoxifen-resistant MCF-7 breast cancer cells; test: Proliferation in tamoxifen-resistant MCF-7 breast cancer cells; type: cell-based; conditions: no difference in AR expression levels, FIG. 2
# [6] = target: T1, β-catenin interaction with AR (Homo sapiens, UniProt P10275); test: β-catenin interaction with AR; conditions: MJC13 targeting to the AR BF3 surface; prostate cancer cells
# T1 sequence (P10275 1-920): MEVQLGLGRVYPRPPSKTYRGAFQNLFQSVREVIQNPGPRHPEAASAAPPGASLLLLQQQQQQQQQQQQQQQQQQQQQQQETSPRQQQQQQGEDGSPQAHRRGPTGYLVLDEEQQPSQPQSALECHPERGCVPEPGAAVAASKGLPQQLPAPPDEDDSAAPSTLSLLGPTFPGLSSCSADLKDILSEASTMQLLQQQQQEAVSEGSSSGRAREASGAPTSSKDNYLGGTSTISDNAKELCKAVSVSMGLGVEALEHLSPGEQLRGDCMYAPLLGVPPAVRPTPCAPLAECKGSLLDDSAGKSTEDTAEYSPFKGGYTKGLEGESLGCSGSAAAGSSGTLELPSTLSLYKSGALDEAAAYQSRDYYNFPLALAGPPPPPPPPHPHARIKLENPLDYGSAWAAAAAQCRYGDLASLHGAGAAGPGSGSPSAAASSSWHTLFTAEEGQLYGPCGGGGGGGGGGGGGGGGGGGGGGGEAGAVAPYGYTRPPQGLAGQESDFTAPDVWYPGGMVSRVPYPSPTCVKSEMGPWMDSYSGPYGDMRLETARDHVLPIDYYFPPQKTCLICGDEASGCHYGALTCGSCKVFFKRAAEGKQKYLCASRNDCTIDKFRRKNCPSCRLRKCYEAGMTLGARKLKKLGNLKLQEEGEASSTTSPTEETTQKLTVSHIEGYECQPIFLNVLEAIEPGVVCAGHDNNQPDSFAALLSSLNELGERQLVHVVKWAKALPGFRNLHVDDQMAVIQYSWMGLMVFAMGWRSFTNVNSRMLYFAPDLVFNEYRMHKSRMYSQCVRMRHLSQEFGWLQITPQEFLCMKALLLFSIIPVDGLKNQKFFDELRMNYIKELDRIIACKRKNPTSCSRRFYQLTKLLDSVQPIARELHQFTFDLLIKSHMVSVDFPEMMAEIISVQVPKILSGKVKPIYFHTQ
# AR [7] = conditions: variety of human prostate cancer cell lines; cited from earlier work
# ER = test: E2-induced ER chromatin binding / ER recruitment to E2-dependent promoters; type: cell-based; conditions: FIG. 3
smiles,measurement,setting,value
O=C(Nc1cccc(Cl)c1Cl)C1CCCCC1 [MJC13],AR-dependent cancer cell proliferation,[1],effectively block
same,tumor growth,[2],impressive effects on tumor growth
same,E2-induced proliferation,[3],inhibits E2-induced proliferation; also recorded: effective inhibitor of E2-induced BC cell proliferation
same,AR cellular localisation,AR [4],retention of AR in the cytoplasm
same,cell proliferation,[5],effectively inhibits cell proliferation
same,β-catenin interaction with AR,[6],abrogates β-catenin interaction with AR
same,AR signaling,AR [7],effectively block AR signaling
same,E2-induced ER chromatin binding,ER,significantly decreases E2-induced ER chromatin binding; also recorded: affects ER recruitment to E2-dependent promoters
